According to ChEMBL document CHEMBL1201862, “PubChem BioAssay data set” (2004):
Calls of active or inactive are those of the source.

How the values were obtained:
[1] = target: T1, Kappa-type opioid receptor (Homo sapiens, UniProt P41145); assay type: functional
[2] = target: T2, Short transient receptor potential channel 4 (Mus musculus, UniProt Q9QUQ5); experiment: mouse TRPC4 channel inhibitors, dose response, cell-based, HEK293 TRPC4/mu-opioid, Fluo-4 calcium (AID 434942); assay type: functional;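 further: potency of inhibitors blocking the TRPC4 calcium response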
T2 sequence (Q9QUQ5 whole entry): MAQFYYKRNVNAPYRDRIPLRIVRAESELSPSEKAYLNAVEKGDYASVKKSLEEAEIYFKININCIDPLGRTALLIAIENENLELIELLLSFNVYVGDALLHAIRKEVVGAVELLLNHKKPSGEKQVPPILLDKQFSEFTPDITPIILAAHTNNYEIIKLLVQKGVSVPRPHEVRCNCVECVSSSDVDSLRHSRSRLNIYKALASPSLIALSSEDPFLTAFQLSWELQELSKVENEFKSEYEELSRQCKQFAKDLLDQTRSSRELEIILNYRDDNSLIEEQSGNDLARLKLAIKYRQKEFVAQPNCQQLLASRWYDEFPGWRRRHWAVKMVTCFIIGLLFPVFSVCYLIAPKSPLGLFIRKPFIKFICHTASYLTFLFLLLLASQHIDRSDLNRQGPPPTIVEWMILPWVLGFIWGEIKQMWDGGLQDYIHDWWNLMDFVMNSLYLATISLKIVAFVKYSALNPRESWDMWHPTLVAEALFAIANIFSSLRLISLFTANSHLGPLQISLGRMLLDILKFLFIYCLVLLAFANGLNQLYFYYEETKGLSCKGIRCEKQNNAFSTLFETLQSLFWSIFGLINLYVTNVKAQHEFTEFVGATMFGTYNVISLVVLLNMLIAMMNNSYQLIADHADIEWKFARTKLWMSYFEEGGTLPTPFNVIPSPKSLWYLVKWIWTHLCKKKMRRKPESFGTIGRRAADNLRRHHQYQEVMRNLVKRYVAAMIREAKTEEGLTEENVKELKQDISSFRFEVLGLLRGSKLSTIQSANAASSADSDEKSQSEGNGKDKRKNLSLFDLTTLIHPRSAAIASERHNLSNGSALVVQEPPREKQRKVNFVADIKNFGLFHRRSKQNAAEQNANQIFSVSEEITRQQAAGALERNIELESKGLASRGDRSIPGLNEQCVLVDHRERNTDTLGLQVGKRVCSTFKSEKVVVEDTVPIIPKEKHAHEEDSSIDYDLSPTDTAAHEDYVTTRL

[3] = target: T1, Kappa-type opioid receptor; assay type: functional; remark: listed apart in the source
[4] = target: T3, Delta-type opioid receptor (Homo sapiens, UniProt P41143); experiment: HTS Image-Based Screen for Agonists of the DOR Receptor. [Related pubchem assays (depositor defined):AID1777, AID1786, AID2133]; assay type: functional
T3 sequence (P41143 whole entry): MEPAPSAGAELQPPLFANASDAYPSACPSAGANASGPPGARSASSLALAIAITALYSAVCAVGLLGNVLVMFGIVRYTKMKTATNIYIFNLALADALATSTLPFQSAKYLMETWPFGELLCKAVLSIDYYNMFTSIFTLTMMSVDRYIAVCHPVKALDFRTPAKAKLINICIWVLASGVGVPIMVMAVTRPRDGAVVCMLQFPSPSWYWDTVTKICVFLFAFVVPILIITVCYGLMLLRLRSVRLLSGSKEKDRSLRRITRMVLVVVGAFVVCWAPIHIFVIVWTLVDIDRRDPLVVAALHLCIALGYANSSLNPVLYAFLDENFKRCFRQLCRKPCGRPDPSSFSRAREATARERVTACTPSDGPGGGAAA

[5] = target: T3, Delta-type opioid receptor; experiment: HTS Image-Based Screen for Antagonists of the DOR Receptor. [Related pubchem assays (depositor defined):AID1777, AID1785, AID1786, AID2133]; assay type: functional
Mu-type opioid receptor [6] = target: T4, Mu-type opioid receptor (Homo sapiens, UniProt P35372); experiment: HTS Image-Based Screen for Agonists of the MOR Receptor. [Related pubchem assays (depositor defined):AID1777, AID1785, AID1786, AID2133]; assay type: functional
T4 sequence (P35372 whole entry): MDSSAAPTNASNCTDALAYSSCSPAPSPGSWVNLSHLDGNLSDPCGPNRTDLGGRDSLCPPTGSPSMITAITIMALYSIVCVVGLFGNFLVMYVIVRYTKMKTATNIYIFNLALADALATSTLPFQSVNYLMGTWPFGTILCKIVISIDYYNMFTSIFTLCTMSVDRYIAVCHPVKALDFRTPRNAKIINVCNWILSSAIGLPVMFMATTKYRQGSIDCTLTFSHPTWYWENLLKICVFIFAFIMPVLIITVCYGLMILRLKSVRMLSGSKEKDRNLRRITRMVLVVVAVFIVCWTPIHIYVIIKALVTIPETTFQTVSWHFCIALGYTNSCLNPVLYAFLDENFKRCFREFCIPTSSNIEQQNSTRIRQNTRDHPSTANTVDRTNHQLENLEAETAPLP

Phosphomannomutase 2 = Phosphomannomutase 2 (Homo sapiens, UniProt O15305); experiment: Counter screen SAR assay for PMM2 inhibitors via a fluorescence intensity assay. [Related pubchem assays (depositor defined):AID1545, AID1574]
[7] = target: T5, Mannose-6-phosphate isomerase (Homo sapiens, UniProt P34949); experiment: PMI enzyme inhibitors, confirmation, biochemical, fluorescence intensity (AID 1535)
T5 sequence (P34949 whole entry): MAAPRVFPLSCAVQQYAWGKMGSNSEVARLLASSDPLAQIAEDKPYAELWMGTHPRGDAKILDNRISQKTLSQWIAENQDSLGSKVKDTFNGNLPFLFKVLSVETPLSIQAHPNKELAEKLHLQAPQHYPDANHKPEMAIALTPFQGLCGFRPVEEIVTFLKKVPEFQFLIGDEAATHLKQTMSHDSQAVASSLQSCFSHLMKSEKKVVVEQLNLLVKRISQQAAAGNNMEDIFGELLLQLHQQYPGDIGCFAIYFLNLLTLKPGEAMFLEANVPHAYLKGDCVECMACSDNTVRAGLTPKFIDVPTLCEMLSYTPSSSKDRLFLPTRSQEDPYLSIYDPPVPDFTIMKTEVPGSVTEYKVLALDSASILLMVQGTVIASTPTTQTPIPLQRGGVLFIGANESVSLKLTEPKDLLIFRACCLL

[8] = growth induction of Burl-1 ts yeast mutant, dose response, counter-screen for SUMOylation pathway inhibitor project, whole organism, S. cerevisiae, luminescence (AID 463199); assay type: functional
CAAX prenyl protease 1 = CAAX prenyl protease 1 (Saccharomyces cerevisiae S288c, UniProt P47154); experiment: Ste24 protease inhibitors, dose response, biochemical, S. cerevisiae, plate reader, cherry-pick (AID 488815)
Trypsin = Trypsin (Sus scrofa, UniProt P00761); experiment: porcine trypsin inhibitors, dose response, selectivity assay for Rce1 protease inhibitor project, biochemical, quenched peptide fluorescence, cherry-pick (AID 488789)
[9] = target: T6, Voltage-gated N-type calcium channel alpha-1B subunit/Amyloid beta A4 precursor protein-binding family A member 1 (Homo sapiens, UniProt Q00975+Q02410); assay type: protein assay
T6 sequence (Q00975 whole entry): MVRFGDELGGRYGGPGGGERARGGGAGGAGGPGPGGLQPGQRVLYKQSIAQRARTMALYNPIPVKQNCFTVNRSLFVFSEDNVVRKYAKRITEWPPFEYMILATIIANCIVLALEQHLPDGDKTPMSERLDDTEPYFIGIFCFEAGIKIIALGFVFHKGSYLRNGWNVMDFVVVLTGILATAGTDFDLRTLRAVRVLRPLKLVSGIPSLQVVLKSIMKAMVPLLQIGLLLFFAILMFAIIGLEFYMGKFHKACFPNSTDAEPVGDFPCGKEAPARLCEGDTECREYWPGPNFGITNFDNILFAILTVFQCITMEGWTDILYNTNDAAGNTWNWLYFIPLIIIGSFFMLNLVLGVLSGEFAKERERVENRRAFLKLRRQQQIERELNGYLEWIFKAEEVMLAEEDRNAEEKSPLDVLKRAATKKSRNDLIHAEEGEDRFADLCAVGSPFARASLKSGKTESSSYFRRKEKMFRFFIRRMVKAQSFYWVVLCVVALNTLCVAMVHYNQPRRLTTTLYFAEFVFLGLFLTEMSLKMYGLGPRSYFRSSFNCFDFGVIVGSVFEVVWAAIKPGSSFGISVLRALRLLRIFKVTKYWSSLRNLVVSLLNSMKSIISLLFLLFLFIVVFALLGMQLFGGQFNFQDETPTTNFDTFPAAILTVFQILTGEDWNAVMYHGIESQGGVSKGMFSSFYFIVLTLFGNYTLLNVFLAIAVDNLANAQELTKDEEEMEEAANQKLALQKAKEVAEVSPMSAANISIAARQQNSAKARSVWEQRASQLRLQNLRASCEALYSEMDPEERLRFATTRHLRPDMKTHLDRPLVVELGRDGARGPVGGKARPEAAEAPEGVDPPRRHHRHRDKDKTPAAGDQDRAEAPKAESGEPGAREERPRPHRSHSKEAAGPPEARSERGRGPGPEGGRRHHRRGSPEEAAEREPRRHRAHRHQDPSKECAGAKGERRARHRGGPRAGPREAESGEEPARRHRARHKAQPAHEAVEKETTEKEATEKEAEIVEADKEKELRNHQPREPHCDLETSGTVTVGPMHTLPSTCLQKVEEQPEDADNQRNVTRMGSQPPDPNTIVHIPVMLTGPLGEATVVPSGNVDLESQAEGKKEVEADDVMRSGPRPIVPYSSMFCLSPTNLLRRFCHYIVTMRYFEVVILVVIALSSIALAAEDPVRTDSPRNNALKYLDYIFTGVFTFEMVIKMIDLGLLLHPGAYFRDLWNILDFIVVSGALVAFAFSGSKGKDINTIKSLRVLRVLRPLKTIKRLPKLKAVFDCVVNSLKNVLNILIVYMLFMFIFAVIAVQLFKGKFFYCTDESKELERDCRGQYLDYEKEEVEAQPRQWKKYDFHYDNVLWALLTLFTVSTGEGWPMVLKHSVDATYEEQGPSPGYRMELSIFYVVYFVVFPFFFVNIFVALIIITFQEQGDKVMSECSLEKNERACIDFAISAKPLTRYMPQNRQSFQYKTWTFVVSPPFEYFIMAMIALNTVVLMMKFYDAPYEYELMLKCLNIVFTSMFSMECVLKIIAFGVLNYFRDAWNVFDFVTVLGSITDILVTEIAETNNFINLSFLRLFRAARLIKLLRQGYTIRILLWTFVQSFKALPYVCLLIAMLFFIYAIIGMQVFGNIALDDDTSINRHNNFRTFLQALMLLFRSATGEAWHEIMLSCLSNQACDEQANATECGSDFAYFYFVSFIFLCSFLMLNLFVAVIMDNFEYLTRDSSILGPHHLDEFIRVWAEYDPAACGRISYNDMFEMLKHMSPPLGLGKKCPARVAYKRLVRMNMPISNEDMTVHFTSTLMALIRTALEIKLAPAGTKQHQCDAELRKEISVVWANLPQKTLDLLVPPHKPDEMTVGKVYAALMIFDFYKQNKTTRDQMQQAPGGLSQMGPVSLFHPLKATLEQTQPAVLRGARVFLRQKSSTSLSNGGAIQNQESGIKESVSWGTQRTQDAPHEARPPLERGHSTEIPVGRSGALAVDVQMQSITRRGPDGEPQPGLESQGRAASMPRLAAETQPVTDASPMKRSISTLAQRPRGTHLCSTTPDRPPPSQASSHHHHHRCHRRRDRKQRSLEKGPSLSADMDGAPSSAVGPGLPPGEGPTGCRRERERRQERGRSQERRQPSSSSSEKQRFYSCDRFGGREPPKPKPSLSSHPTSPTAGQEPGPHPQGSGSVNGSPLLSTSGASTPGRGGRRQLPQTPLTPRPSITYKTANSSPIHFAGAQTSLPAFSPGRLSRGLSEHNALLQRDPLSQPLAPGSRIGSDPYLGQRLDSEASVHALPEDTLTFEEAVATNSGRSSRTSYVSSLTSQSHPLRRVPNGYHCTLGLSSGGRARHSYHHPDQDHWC
T6 sequence (Q02410 whole entry): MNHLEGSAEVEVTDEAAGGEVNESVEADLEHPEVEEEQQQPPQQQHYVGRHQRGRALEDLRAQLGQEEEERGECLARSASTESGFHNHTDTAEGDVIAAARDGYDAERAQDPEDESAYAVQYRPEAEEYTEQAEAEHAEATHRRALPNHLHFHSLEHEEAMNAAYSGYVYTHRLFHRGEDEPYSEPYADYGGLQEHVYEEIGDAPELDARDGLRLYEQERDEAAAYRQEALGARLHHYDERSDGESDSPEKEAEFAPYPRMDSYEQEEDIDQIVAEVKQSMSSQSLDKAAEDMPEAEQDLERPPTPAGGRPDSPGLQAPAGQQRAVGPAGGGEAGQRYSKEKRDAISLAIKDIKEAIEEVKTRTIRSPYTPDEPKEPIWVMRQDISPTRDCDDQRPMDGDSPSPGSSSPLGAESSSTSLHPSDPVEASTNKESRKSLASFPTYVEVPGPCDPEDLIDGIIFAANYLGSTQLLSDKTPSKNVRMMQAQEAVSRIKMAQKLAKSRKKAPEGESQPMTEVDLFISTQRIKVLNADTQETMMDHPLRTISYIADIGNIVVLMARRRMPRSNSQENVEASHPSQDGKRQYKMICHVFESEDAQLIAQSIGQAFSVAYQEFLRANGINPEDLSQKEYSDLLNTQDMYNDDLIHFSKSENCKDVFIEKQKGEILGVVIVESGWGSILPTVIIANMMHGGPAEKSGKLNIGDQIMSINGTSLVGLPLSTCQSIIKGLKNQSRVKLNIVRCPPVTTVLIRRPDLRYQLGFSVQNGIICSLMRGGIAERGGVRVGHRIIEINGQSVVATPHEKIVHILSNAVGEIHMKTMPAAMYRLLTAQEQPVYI

[10] = target: T6, Voltage-gated N-type calcium channel alpha-1B subunit/Amyloid beta A4 precursor protein-binding family A member 1; assay type: protein assay; remark: listed apart in the source
[11] = target: T7, Dual specificity protein phosphatase 3 (Homo sapiens, UniProt P51452); experiment: VHR1 phosphatase inhibitors, primary screen, biochemical, absorbance, uHTS (AID 1654)
T7 sequence (P51452 whole entry): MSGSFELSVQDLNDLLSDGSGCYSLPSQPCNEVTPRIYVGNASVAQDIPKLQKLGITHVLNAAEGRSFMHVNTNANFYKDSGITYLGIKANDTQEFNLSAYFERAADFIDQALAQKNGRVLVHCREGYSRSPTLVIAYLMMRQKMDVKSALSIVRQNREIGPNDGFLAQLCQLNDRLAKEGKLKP

[12] = target: T7, Dual specificity protein phosphatase 3; experiment: VHR1 phosphatase inhibitors, biochemical (AID 1878)
[13] = target: T8, Dual specificity protein phosphatase 6 (Rattus norvegicus, UniProt Q64346); experiment: MKP-3 phosphatase inhibitors, primary screen, biochemical, rat enzyme, in vitro (AID 425)
T8 sequence (Q64346 whole entry): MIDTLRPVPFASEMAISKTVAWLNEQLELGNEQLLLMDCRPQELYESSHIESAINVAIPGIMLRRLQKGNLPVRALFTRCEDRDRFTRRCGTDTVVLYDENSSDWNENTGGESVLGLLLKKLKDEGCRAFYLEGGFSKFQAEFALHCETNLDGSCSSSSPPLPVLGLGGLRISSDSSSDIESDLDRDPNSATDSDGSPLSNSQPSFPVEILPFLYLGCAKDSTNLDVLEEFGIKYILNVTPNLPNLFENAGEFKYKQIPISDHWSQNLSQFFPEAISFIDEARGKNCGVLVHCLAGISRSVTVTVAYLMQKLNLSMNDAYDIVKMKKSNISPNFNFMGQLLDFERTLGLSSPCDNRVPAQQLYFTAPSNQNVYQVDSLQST

[14] = target: Serine/threonine-protein phosphatase PP1-alpha catalytic subunit (Homo sapiens, UniProt P62136); experiment: PP1 phosphatase inhibitors, dose response, biochemical, fluorescence (AID 2403);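 further: phosphatase turnover of OMFP into fluorescent 3-O-methylfluorescein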
[15] = target: T9, Zinc finger protein mex-5 (Caenorhabditis elegans, UniProt Q9XUB2); experiment: MEX-5/TCR-2 RNA interaction inhibitors, dose response, biochemical, C. elegans, fluorescence polarization (AID 1960)
T9 sequence (Q9XUB2 whole entry): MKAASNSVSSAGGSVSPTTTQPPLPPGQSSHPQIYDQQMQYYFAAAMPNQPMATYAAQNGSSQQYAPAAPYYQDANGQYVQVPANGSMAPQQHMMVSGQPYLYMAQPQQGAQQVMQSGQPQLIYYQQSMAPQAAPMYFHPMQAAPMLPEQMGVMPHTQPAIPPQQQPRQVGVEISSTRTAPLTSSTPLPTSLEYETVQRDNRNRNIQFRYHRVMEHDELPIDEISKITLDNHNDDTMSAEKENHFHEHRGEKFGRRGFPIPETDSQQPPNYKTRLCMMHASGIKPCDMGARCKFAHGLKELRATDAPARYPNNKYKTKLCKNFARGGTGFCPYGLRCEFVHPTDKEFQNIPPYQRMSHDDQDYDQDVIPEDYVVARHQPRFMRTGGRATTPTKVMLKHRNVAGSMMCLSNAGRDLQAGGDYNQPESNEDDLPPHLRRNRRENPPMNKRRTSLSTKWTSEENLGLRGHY

[16] = target: T10, Serine/threonine-protein phosphatase (Homo sapiens, UniProt Q9BPW0); experiment: Counterscreen for inhibitors of PP1: fluorescence-based biochemical high throughput dose response assay to identify inhibitors of Protein Phosphatase 5 (PP5). [Related pubchem assays: 2034 (Summary (PP5 inhibitors)), 1987 (PP5 inhibitors in singlate), 2235 (PP1 inhibitors in singlate)]
T10 sequence (Q9BPW0 whole entry): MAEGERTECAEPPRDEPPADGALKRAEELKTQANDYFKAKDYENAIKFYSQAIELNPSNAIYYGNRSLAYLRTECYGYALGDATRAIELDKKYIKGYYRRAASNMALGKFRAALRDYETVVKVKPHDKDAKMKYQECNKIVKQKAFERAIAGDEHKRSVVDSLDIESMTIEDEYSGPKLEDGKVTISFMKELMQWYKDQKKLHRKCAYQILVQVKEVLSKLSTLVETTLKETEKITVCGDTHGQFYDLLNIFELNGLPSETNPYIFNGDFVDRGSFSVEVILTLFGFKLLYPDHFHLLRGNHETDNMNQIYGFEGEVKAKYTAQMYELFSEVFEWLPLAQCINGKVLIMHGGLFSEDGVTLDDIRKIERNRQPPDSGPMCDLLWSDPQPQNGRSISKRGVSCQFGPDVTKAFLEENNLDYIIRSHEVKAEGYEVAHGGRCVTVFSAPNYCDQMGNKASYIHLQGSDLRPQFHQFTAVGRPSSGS

Mu-type opioid receptor [17] = target: T4, Mu-type opioid receptor; experiment: SAR Analysis of Agonists of the MOR Receptor using an Image-Based Assay - Set 3. [Related pubchem assays (depositor defined):AID1777, AID1785, AID1786, AID1966, AID2133, AID2136, AID2284, AID2285, AID2352]; assay type: functional
[18] = target: T1, Kappa-type opioid receptor; experiment: KOR agonist analogs, arrestin-GFP redistribution, SAR follow-up, imaging, image-based, set 3 (AID 488833); assay type: functional
Mu-type opioid receptor [19] = target: T4, Mu-type opioid receptor; experiment: MOR antagonists, SAR follow-up, image-based (AID 2420); assay type: functional;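 further: compounds added before stimulation of receptor with agonist DAMGO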
[20] = target: T3, Delta-type opioid receptor; experiment: DOR antagonists, SAR follow-up, image-based (AID 2357); assay type: functional
[21] = target: T3, Delta-type opioid receptor; experiment: DOR agonists, SAR follow-up, image-based (AID 2370); assay type: functional
[22] = target: T1, Kappa-type opioid receptor; experiment: SAR analysis of small molecule agonists of the kappa opioid receptor via a luminescent beta-arrestin assay - Set 3. [Related pubchem assays (depositor defined):AID1777, AID1785, AID1786, AID1966, AID2133, AID2136, AID2284, AID2500]; assay type: functional
[23] = target: T1, Kappa-type opioid receptor; experiment: KOR agonist analogs, imaging readout, SAR follow-up, image-based (AID 2359); assay type: functional
Mu-type opioid receptor [24] = target: T4, Mu-type opioid receptor; experiment: MOR agonists by imaging, SAR follow-up, image-based (AID 2352); assay type: functional
[25] = target: T1, Kappa-type opioid receptor; experiment: KOR antagonists by imaging, SAR follow-up, image-based (AID 2348); assay type: functional
[26] = target: T1, Kappa-type opioid receptor; experiment: SAR analysis of small molecule agonists of the kappa opioid receptor via a luminescent beta-arrestin assay. [Related pubchem assays (depositor defined):AID1777, AID1786, AID1966, AID2133, AID2136, AID2348, AID2352, AID2357, AID2359, AID2370, AID2420, AID2478, AID2491, AID2492, AID2493, AID2497, AID2498, AID2500, AID449737, AID488822, AID488842]; assay type: functional
[27] = target: T3, Delta-type opioid receptor; experiment: SAR Analysis of Agonists of the DOR Receptor using an Image-Based Assay - Set 3. [Related pubchem assays (depositor defined):AID1777, AID1786]; assay type: functional
Apelin receptor = Apelin receptor (Homo sapiens, UniProt P35414); experiment: APJ beta-arrestin recruitment antagonism, SAR follow-up, selectivity assay for CCR6 antagonist project, cell-based, luminescent, enzyme-fragment complementation (AID 588359); assay type: functional
Apelin receptor, sequence (P35414 whole entry, the tested form may be a part): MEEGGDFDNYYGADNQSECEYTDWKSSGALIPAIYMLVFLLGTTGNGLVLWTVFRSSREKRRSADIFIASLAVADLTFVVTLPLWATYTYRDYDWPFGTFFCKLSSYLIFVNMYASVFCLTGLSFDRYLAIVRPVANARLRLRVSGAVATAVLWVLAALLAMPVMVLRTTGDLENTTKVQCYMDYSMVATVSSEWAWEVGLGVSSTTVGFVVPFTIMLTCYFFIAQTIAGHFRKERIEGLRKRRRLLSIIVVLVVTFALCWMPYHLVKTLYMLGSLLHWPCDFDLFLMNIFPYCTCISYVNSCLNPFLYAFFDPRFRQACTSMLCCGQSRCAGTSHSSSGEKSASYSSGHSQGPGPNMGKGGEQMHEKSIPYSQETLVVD

T1 sequence (P41145 whole entry): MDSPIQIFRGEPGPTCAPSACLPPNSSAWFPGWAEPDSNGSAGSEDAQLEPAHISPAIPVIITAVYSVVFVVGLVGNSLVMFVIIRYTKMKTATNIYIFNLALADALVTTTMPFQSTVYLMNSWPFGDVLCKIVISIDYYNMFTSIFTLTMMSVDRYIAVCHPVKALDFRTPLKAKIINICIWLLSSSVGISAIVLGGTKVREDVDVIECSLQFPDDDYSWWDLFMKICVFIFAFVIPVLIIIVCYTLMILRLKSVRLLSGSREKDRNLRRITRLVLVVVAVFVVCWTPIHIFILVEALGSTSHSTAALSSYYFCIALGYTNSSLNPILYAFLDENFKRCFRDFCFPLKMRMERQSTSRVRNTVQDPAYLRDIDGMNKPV

Cc1cccc(-n2ccnc2CN2CCC(CO)(Cc3ccccc3)CC2)c1
EC50 [1]: 4.15 µM | EC50 [2]: 1.68 µM (active) | EC50 [3]: 5.69 µM | EC50 [4]: > 32 µM (inactive) | IC50 [5]: > 32 µM (inactive) | EC50 (Mu-type opioid receptor [6]): > 32 µM (inactive)

O=C1c2ccccc2SC1c1ccccc1 (stereo unspecified)
IC50 (Phosphomannomutase 2): > 100 µM (inactive) | IC50 [7]: > 100 µM (inactive)

S=C(NCCc1c[nH]c2ccccc12)NC1CC1
AC50 [8]: 51 µM (active)

COc1cccc(C2CC3=Nc4ccccc4N(C(=O)CCC(=O)O)C(c4ccc(F)cc4)C3=C(O)C2)c1 (stereo unspecified)
AC50 (CAAX prenyl protease 1): 21.6 µM (active) | AC50 (Trypsin): 12 µM (active)

O=C1NC(=S)N(c2ccc(F)cc2)C(=O)/C1=C/c1ccco1
IC50 [9]: 3.33 µM (active) | IC50 [10]: 4.45 µM (active) | IC50 [11]: < 1.23 µM (inactive) | IC50 [12]: < 1.23 µM (inactive) | IC50 [13]: 1.36 µM (active) | IC50 [14]: 8.21 µM (active) | EC50 [15]: 11.1 µM (active) | IC50 [16]: > 67 µM (not active)

Clc1ccccc1CSc1nnc(-c2ccccn2)n1Cc1ccco1
EC50 (Mu-type opioid receptor [17]): > 32 µM (inactive) | EC50 [18]: 11.6 µM (inactive) | IC50 (Mu-type opioid receptor [19]): > 32 µM (inactive) | IC50 [20]: > 32 µM (inactive) | EC50 [21]: > 32 µM (inactive) | EC50 [22]: 9.07 µM (active) | EC50 [23]: 10.4 µM (active) | EC50 (Mu-type opioid receptor [24]): > 32 µM (inactive) | IC50 [25]: > 32 µM (inactive) | EC50 [26]: > 10 µM (inactive) | EC50 [27]: > 64 µM (inactive)

C/C(=N\Nc1ccc2ccccc2n1)c1ccccc1O
IC50 (Apelin receptor): 4.12 µM (active)
